Results published in US9278991B2, “Anhydrous polymorphs of [(2R,3S,4R,5R)-5-(6-(cyclopentylamino)-9H-purin-9-yl)-3,4-dihydroxytetrahydrofuran-2-yl)} methyl nitrate and processes of preparation thereof” (Inotek Pharmaceuticals Corporation, priority 2012, dated 2016).
Values belong to the compound of their own block, whether it stands above or below them.

Columns and labels:
Type in all cases: physicochemical
[1] = Curing (ripening) of Compound A aqueous suspension at 40 degrees C: conversion of form A1 to A2, followed by particle size, XRPD and microphotography
Protocol: XRPD patterns were obtained using a high-throughput XRPD set-up. The plates were mounted on a Bruker GADDS diffractometer equipped with a Hi-Star area detector. The XRPD platform was calibrated using Silver Behenate for the long d-spacings and Corundum for the short d-spacings.
Data collection was carried out at room temperature using monochromatic CuKα radiation in the 2-theta region between 1.5 degrees and 41.5 degrees, which is the most distinctive part of the XRPD pattern between the polymorph forms. The diffraction pattern of each well was collected in 2 theta ranges (1.5 degrees≦2 theta≦21.5 degrees for the first frame, and 19.5 degrees≦2 theta≦41.5 degrees for the second) with an exposure time of 30 seconds for each frame. No background subtraction or curve smoothing was applied to the XRPD patterns. The carrier material used during XRPD analysis was transparent to X-rays and contributed only slightly to the background.
As described above the Form A1 can be obtained predominantly via recrystallization from ethanol or under slow evaporation conditions. It has also been established that ripening or curing of Compound A particles suspended in an aqueous suspension formulated for ocular delivery at 40 degrees C. for a relatively short period of time formed polymorph form A2 from polymorph form A1. The aqueous suspension samples were kept at 40 degrees C. for up to 108 hours and monitored by particle size measurement, XRPD and microphotography. […] XRPD analyses indicated a change in polymorph content from about 74% A1 to 26% A2 at time zero to 0% A1 to 100% A2 at 108 hours at 40 degrees C. […] Also, habit changes coupled with A2 growth were reflected in the XRPD patterns and could be monitored by a difference in selected peak intensities from planes within the crystal lattice perpendicular to the c axis that change in intensity as the habit of the crystal changes.
(§1) The particle size analyses were performed on a Cilas 1180 Particle Size Analyzer. The parameters used were liquid mode, sample refractive index=1.62 (determined using Cargille immersion oils), liquid refractive index=1.333 (value for water), 30 second measurement, 180 rpm stifling, 120 rpm pump circulation, no sonication, 5 repeat measurements.

[2] = Storage of aqueous suspension ocular formulation containing Compound A in the A1 polymorph at 2-8° C
Protocol: When the aqueous suspension ocular formulation containing Compound A in the A1 polymorph is stored at 2-8° C., a temperature required to limit decomposition of Compound A over long term storage, the habit of the suspended particles changes slowly over a period of 6 to 12 months. During this time the small irregular particles of suspended drug change to rod-like habits, with many particles having a length along the longest dimension over 100 microns.

[3] = Long term stability and particle size growth of cured (A2) aqueous formulation lots at 5 and 25 degrees Celsius; conditions: aqueous suspension, 6 month period at either 5° C. or 25° C.
Protocol: as §1
A batch of sterile material of Compound A was prepared as described above under the “Synthesis of Compound A”. The resulting Compound A material was then sterilized with gamma irradiation at up to 40 kGray and then formulated into the following aqueous formulations: […]
Various concentrations of Compound A formulation lots were prepared from 0.152, 0.30, 0.61, 0.91, 2.42, 0.46, 0.76%, W/V to provide for the ability to deliver different levels of Compound A per drop of formulation. For example one drop of the 0.152%, W/V of compound A would deliver 50 mcg per drop, 0.30%, W/V would deliver 100 mcg per drop, right through to 0.76% W/V delivering 250 mcg per drop. The formulation lots were then heated to undergo the curing step and convert the A1 polymorph form of Compound A to the A2 polymorph form of Compound A. The curing step was undertaken by placing the formulation lots at 40 degrees C. for 48 hours and then reverting the formulations lots to the desired longer term storage conditions for stability studies. […]

average particle size change ([1]; 40 degrees C, after 15 hours to 108 hours): remained effectively constant
time over which XRPD peak intensity differences (crystal habit) changed ([1]; 40 degrees C, constant thereafter): up to 9 hours
average particle size change ([1]; 40 degrees C, over 15 hours): increased significantly
polymorph content A1 (XRPD) ([1]; 108 hours at 40 degrees C): 0%
polymorph content A2 (XRPD) ([1]; 108 hours at 40 degrees C): 100%
polymorph content A1 (XRPD) ([1]; time zero): about 74%
polymorph content A2 (XRPD) ([1]; time zero): ~26%
Structure (SMILES): O=[N+]([O-])OC[C@H]1O[C@@H](n2cnc3c(NC4CCCC4)ncnc32)[C@H](O)[C@@H]1O [Compound A, [2R,3S,4R,5R)-5-(6-(cyclopentylamino)-9H-purin-9-yl)-3,4-dihydroxytetrahydrofuran-2-yl)] methyl nitrate]

resuspendability by sonication and shaking ([2]; aqueous suspension after habit change at 2-8° C): much more difficult to resuspend
particle length along the longest dimension (many particles) ([2]; aqueous suspension stored at 2-8° C, 6 to 12 months): over 100 microns
Structure (SMILES): O=[N+]([O-])OC[C@H]1O[C@@H](n2cnc3c(NC4CCCC4)ncnc32)[C@H](O)[C@@H]1O [Form A1]

changes to particle habit, size or polymorph content on storage [3]: limit any further changes
Structure (SMILES): O=[N+]([O-])OC[C@H]1O[C@@H](n2cnc3c(NC4CCCC4)ncnc32)[C@H](O)[C@@H]1O [Form A2]
